How the values were obtained:
[1] = test system: S100A4-MetAP2 interaction; assay: In vitro GST pull-down binding assay S100A4-MetAP2
[2] = test system: S100A4; assay: FRET acceptor-photobleaching analysis in live HeLa cells; assay type: binding; details: ECFP fusion cotransfected with EYFP-S100A4, acceptor photobleaching, n = 8–11, **P < 0.01, ***P < 0.001
[3] = test system: MetAP2; design: method as in PMID 16790550, PMID 22229417; details: cited from earlier work
[4] = test system: ERK1/2; design: method as in PMID 19716858; details: cited from earlier work
[5] = test system: MetAP2; details: cited from earlier work
[6] = test system: S100A4; assay: Surface plasmon resonance binding to GST-S100A4; details: Biacore 3000, captured GST-S100A4, SBD 1 mmol/l, HBS-P pH 7.4, with or without 1 mmol/l CaCl2, 25 °C, duplicated experiment
Source text: The binding of the SBD peptide to S100A4 was examined by Surface plasmon resonance (SPR) with a Biacore 3000 biosensor and GST Capture kit (GE Healthcare, Little Chalfont, UK) according to the manufacturer’s instructions. Goat anti-GST antibody was immobilized on two flow cells of the sensor chip (CM-5) using a standard amine coupling procedure, and then recombinant GST-S100A4 or GST as a negative control was captured. The SBD peptide (1 mmol/l) in HBS-P running buffer (10 mmol/l Hepes, pH 7.4, 150 mmol/l NaCl, 0.005% P20) in the presence or absence of 1 mmol/l CaCl2 was injected over two flow cells of the chip at a flow rate of 10 ml/minute at 25 °C for 5 minutes. The response from the control surface was subtracted, and the data plotted as Resonance Units (RU).

For methionine aminopeptidase 2 [MetAP2], the “binding of MetAP2 to S100A4 (GST pull-down)” value ([1]; [35S]MetAP2, GST/S100A4, 1 mmol/l CaCl2 or 1 mmol/l EDTA) was “S100A4 bound to MetAP2 in a Ca^2+-dependent manner”.

In the case of “ECFP-CBD: CBD sequence subcloned into pECFP-C1, expressed in HeLa cells (TMIEICEKLEDCSRKLIKENGLNAGLAFPTGCSLNNCA; left off: ECFP, end not stated, kept)”, the “FRET efficiency with EYFP-S100A4 vs negative controls” value [2] is reported as “but not for ECFP-CBD/EYFP-S100A4 (orange bars), were significantly higher than those in respective negative controls”.

With “ECFP-NBD: NBD sequence subcloned into pECFP-C1, expressed in HeLa cells (REAAEAHRQVRKYVMSWIKPGMTMIEICEKLEDCSRKLI; left off: ECFP, end not stated, kept)” the “FRET efficiency with EYFP-S100A4 vs negative controls” value [2] was “significantly higher than those in respective negative controls”.

With “ECFP-SBD: SBD sequence subcloned into pECFP-C1, expressed in HeLa cells (REAAEAHRQVRKYVMSWIKPGMTMIEICEKLEDCSRKLIKENGLNAGLAFPTGCSLNNCA; left off: ECFP, end not stated, kept)” the “FRET efficiency with EYFP-S100A4 vs negative controls” value [2] was “significantly higher than those in respective negative controls”.

In the case of `CO[C@@H]1[C@H](OC(=O)NC(=O)CCl)CC[C@]2(CO2)[C@H]1[C@@]1(C)O[C@@H]1CC=C(C)C` [TNP-470], the antiangiogenic activity [3] is listed as “potent antiangiogenic agents”.

In the case of `CO[C@@H]1[C@H](OC(=O)/C=C/C=C/C=C/C=C/C(=O)O)CC[C@]2(CO2)[C@H]1[C@@]1(C)O[C@@H]1CC=C(C)C` [Fumagillin, fumagillin], the “effect on ERK1/2 activity and cell growth” value [4] is listed as “inhibition of the activity of ERK1/2 and cell growth”, the “effect on MetAP2 auto-proteolytic activity” value [5] is listed as “inhibits MetAP2’s auto-proteolytic activity” and the “effect on MetAP2 turnover rate” value [5] is listed as “decreases its turnover rate”. The antiangiogenic activity [3] was “potent antiangiogenic agents”.

With “SBD: 60 amino acid residues spanning from Arg170 to Ala229 of MetAP2 (REAAEAHRQVRKYVMSWIKPGMTMIEICEKLEDCSRKLIKENGLNAGLAFPTGCSLNNCA)” the “binding to S100A4 (SPR)” value [6] was “occurred only in the presence of Ca^2+” and the “inhibition of S100A4-MetAP2 interaction (GST pull-down)” value ([1]; [35S]MetAP2, GST/S100A4, 1 mmol/l CaCl2, peptide at 25-fold molar excess of MetAP2) was “efficiently blocked the interaction between S100A4 and MetAP2”.
